Measured values published in PMC5487955, “Microarray Selection of Cooperative Peptides for Modulating Enzyme Activities” (Microarrays, 2017).
Values joined by “and” are separate entries in the source; they are usually repeats but may differ in a detail not shown here. Identical values can stand only once. Where no end group is shown, it is not given here.

Legend:
β-galactosidase (β-Gal) [1] = target: T1, β-galactosidase (β-Gal) (Escherichia coli, UniProt P00722); test: biochemical; set-up: purchased Sigma (St. Louis, MO, USA); details: for reduction of enzyme activity, combination with PEP-1: 100 μM NEW peptide + 2 μM PEP-1; for reduction of enzyme activity, NEW peptide alone: 100 μM peptide by itself, pH 7.4 10 mM potassium phosphate, 100 μM MgCl2, 25 °C, at least three replicates
T1 sequence (P00722 2-1024): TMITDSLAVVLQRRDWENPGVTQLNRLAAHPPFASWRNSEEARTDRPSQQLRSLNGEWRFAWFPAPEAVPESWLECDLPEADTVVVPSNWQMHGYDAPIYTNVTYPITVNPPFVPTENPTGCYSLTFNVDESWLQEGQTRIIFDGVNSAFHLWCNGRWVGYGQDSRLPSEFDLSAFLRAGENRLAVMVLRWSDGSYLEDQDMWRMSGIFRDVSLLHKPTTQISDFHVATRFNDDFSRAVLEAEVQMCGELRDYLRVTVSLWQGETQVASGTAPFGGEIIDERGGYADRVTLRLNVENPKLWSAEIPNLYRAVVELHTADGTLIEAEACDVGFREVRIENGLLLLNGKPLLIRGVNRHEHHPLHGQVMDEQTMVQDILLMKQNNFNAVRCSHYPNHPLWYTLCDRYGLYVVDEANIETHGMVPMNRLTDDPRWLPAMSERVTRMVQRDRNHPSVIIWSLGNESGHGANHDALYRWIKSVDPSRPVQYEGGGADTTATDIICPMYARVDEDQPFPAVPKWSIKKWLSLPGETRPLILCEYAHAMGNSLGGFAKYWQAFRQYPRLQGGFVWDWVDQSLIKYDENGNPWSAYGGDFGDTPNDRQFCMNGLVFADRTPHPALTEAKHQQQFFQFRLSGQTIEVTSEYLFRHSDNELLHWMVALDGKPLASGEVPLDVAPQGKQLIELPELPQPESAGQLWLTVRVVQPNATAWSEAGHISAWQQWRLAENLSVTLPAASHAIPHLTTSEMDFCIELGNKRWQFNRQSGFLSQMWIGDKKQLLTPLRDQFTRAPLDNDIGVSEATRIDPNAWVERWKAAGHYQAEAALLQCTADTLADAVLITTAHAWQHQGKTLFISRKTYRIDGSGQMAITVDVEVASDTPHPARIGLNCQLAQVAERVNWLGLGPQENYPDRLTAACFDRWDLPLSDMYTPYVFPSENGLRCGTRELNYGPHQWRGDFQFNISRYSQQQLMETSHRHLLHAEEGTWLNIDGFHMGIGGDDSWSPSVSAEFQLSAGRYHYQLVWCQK
Procedure: Solution-based enzyme assays were performed on SpectraMax M5 96 well plate readers (Molecular Device, Sunnyvale, CA, USA) as described previously. Simply explained, peptides were first incubated with enzyme for 20 min, and then the substrate solution was added into the wells to measure the enzyme activity. At least three replicates per peptide were included. The β-gal-catalyzed hydrolysis of RBG was fluorescently monitored at 590 nm (resorufin) with the excitation at 540 nm. For a typical assay, ~0.3 nM or 1 nM β-Gal was incubated with peptides and 100 μM RBG substrate in pH 7.4, 10 mM potassium phosphate buffer with 100 μM MgCl2 at 25 °C. The reaction rate was determined by the initial velocity of the linear reaction. The percentage of reduced/inhibited enzyme activity was calculated as below: Percentage of reduced activity=(1−Inhibited activity/Noninhibited activity)×100% […]
Figure S1. Titration of IC 50 for PEP-1. The IC 50 of peptide inhibition is measured at a substrate concentration of 100 μM RBG (resorufin β -D-galactopyranoside) and β-Gal concentration of 150 μg/L, 25 °C. All tests included three replicates. Error bar: range of data.
The IC50 of each inhibitor was determined by fitting the concentration vs. inhibition curve to the function ‘Fit LogIC50’ as defined in the program GraphPad Prism 7 using the fitting equation “Y=Bottom+(Top-Bottom)/(1+10^(X-LogIC50))”. The “Bottom” term was constrained to 1, which represents the maximal inhibition of 100%. The “Top” term was constrained to 0, which represents the minimal inhibition of 0%.
The enzyme inhibition was also quantitatively characterized using the inhibition percentage that was calculated using the following equation:
Inhibition Percentage = (Activity uninhibited – Activity inhibited)/ Activity uninhibited × 100%
(1 picture or pasted object on this page, not shown here)

β-galactosidase (β-Gal) [2] = target: T1, β-galactosidase (β-Gal); details: negative control selection
Source text: Microarrays of 10,000 20-mer peptides were produced by Arizona State University as previously reported [14, 17]. […] Each polypeptide was 20 residues in length, with 17 positions randomly chosen from a set of 19 amino acids (excluding cysteine). The C-terminal 3 positions of each peptide was a glycine–serine–cysteine (GSC) linker, which was used for conjugating peptides to amino-silane surfaces via a maleimide linker, sulfosuccinimidyl 4-(N-maleimidomethyl)cyclohexane-1-carboxylate (Sulfo-SMCC; Pierce, Rockford, IL, USA). The array printing was performed by using a Telechem Nanoprint60 (Arrayit, Sunnyvale, CA, USA) hat spotted approximately 500 pL of 1 mg/mL peptide per feature on glass slides with 48 Telechem series SMP2-style 946 titanium pins (Arrayit).
Binding of enzymes on the microarray was performed as previously described [17, 18]. […] Then, the array was incubated with a solution containing 5 nM Alexa 647-labeled β-Gal or PEP-1–β-Gal complex for two hours, allowing the enzyme to bind with peptides on the array surface. After washing off unbound enzymes, the array was read by a standard array reader (PerkinElmer, Waltham, MA, USA) with color scanning using 647 nm laser lines.

[3] = system: crosslinked PEP-1–β-Gal complex; test: Peptide microarray binding of crosslinked PEP-1–β-Gal complex; details: negative control selection
Procedure: Firstly, 20 μM PEP-1 (sequence of “RVFKRKRWLHVSRYYFGSC”) was incubated with 30 nM β-Gal for 20 min, and then 0.5% formaldehyde was added to the peptide/enzyme mixture. It was then incubated for another 20 min in order to crosslink the peptide with enzyme. The entire mixture was then diluted by 100 × in phosphate buffer to bring the overall peptide concentration as low as 200 nM.

[4] = system: inhibited PEP-1–β-Gal complex; test: Recovery of PEP-1 inhibited enzyme activity; type: biochemical; details: 320 μM NEG added, incubated another 20 min; 1 nM β-Gal preincubated with PEP-1 for 20 min
Procedure: Solution-based enzyme assays were performed on SpectraMax M5 96 well plate readers (Molecular Device, Sunnyvale, CA, USA) as described previously. Simply explained, peptides were first incubated with enzyme for 20 min, and then the substrate solution was added into the wells to measure the enzyme activity. At least three replicates per peptide were included. The β-gal-catalyzed hydrolysis of RBG was fluorescently monitored at 590 nm (resorufin) with the excitation at 540 nm. For a typical assay, ~0.3 nM or 1 nM β-Gal was incubated with peptides and 100 μM RBG substrate in pH 7.4, 10 mM potassium phosphate buffer with 100 μM MgCl2 at 25 °C. The reaction rate was determined by the initial velocity of the linear reaction. The percentage of reduced/inhibited enzyme activity was calculated as below: Percentage of reduced activity=(1−Inhibited activity/Noninhibited activity)×100%
For recovery of PEP-1 inhibited enzyme activity, 1 nM β-Gal was first incubated with PEP-1 for 20 min for inhibiting activity, and then NEG peptide was added to the solution and incubated for another 20 min before the activity assay.

[5] = 100 μM RBG, pH 7.4, 25 °C, 20 min preincubation
[6] = 100 μM RBG, 20 min preincubation

## YDTLHRNRQMMDWQFEPGSC [NEW-3]
β-galactosidase (β-Gal) [1]; [5]
  reduction of enzyme activity, combination with PEP-1: ~ 86%
β-galactosidase (β-Gal) [1]; [6]
  reduction of enzyme activity, NEW peptide alone: ~ 19%

## MHNHAFNDNHGRGPTAWGSC [NEW-4]
β-galactosidase (β-Gal) [1]; [5]
  reduction of enzyme activity, combination with PEP-1: 91%
β-galactosidase (β-Gal) [1]; [6]
  reduction of enzyme activity, NEW peptide alone: ~ 26%

## RVFKRKRWLHVSRYYFGSC [PEP-1]
β-galactosidase (β-Gal) [1]
  IC50: ~1600 nM
β-galactosidase (β-Gal) [1]; 2 μM PEP-1 alone, 100 μM RBG, pH 7.4, 25 °C, 20 min preincubation
  reduction of enzyme activity, PEP-1 by itself: ~ 57% and 57%

## HISPQHMMAYSPKAFDYGSC [NEW-2]
β-galactosidase (β-Gal) [1]; [5]
  reduction of enzyme activity, combination with PEP-1: ~ 73%
β-galactosidase (β-Gal) [1]; [6]
  reduction of enzyme activity, NEW peptide alone: ~ 12%

## GVSHLHWIKMLNETTVMGSC [NEW-1]
β-galactosidase (β-Gal) [1]; [5]
  reduction of enzyme activity, combination with PEP-1: ~ 70%
β-galactosidase (β-Gal) [1]; [6]
  reduction of enzyme activity, NEW peptide alone: less than 10%

## ESVPTDLPMDTMEGKNWGSC [NEG, negatively-charged negative control peptide]
β-galactosidase (β-Gal) [2]
  binding to β-Gal on microarray (in words): neither bound to β-Gal
β-galactosidase (β-Gal) [1]; 10 μM NEG + 2 μM PEP-1
  inhibition of β-Gal activity, NEG combined with PEP-1: 24%
β-galactosidase (β-Gal) [1]; 100 μM NEG + 2 μM PEP-1
  inhibition of β-Gal, NEG combined with PEP-1 (in words): almost lost the ability to inhibit β-Gal
[3]
  binding to crosslinked PEP-1–β-gal complex on microarray (in words): did not show strong binding
[4]
  activity of inhibited PEP-1–β-Gal complex, % of uninhibited enzyme: ~45%
